In patent publication US7344531B2, “Thermal surgical procedures and compositions” (Regents of the University of Minnesota, priority 2003, dated 2008):
Entries after “also recorded” stand apart in the source; their conditions may differ.

Assays:
[1] = tested on: MCF-7 breast cancer cells; test: Enhancement of direct cellular injury by freeze/thaw after TNF-alpha exposure, MCF-7; type: cell-based
[2] = tested on: LNCaP Pro 5 human prostate cancer tumor tissue; test: Cryosurgery of TNF-alpha pre-inflamed LNCaP Pro 5 tumor in dorsal skin flap chamber (DSFC); type: in vivo, male athymic nude mice
Procedure: The dorsal skin flap chamber (DSFC) of male athymic nude mice was seeded with the tumor LNCaP […] human prostate cancer, inflamed with TNF-alpha, subjected to cryosurgery, and assessed according to the following procedure. The dorsal skin of a male athymic nude mouse was sandwiched between two identical anodized aluminum frames, a 19 millimeter (mm) by 22 mm chamber was mounted onto the mouse by three screws, the skin was attached to the chamber with 4-O silk using suture holes, and the skin on the side of the viewing region was removed, exposing the dermis containing the microvasculature on the opposite side of the skin. To provide chambers having tumors, approximately 5×10^6LNCaP […] human prostate tumor cells were mixed with MATRIGEL matrix (BD Biosciences, Bedford, Mass.) as described by Lim et al. (Prostate, 22:109-118 (1993)). Approximately 30 μl of the cell suspension was applied to the surface of the microvascular bed immediately after the initial chamber implantation and the tumor was allowed to grow for 10 days, the skin reaching a total thickness of about 450 micrometers (μm) and the tumor extending approximately 10 mm in diameter. […] After four (4) hours, the mouse was anesthetized, TNF-alpha-induced inflammation was measured by observation of leukocyte rolling, and thereafter cryosurgery was immediately performed in the inflamed tissue. […] The temperature at each thermocouple was recorded using a HYDRA DATA LOGGER SERIES 2 (Fluke, Everett, Wash.). […] The dorsal skin flap chamber was then illuminated with a mercury lamp and a FITC signal-enhancing filter (λ=470-490 nm) to view the contrast fluorescence. A Silicon Intensified Transmission camera (Hamamatsu, North Central Instruments, Twin Cities, Minn.) was used to detect the fluorescent signal, and the signal was recorded with a JVC S-VHS video recorder (JVC Company of America, Aurora, Ill.). […] The end temperature of the cryolesion and the thermal parameters within the cryosurgical ice ball were calculated according to the methods of Chao et al. (Cryobiology, 2004 (in press)). […]

[3] = tested on: Human dermal microvascular endothelial cells (MVEC); test: Enhancement of direct cellular injury by freeze/thaw after TNF-alpha exposure, MVEC; type: cell-based
Procedure: Cell suspensions of human endothelial cells (MVECs) were used to assess the enhancement of direct cellular injury (DCI) by use of an adjuvant, wherein the adjuvant used is TNF-alpha.
Human dermal microvascular endothelial cells (MVEC) were prepared and grown as adherent monolayers as described by Gupta et al., Experimental Cell Research, 230:244-251 (1997), maintained in a 37° C./5% CO2/95% humidified air environment in T-flasks pre-coated with 1% gelatin in MCDB 131 medium supplemented with 20% heat-inactivated human male serum, hydrocortisone, cAMP, L-glutamine, heparin, endothelial cell growth supplement (Vec Tec, Schenectady, N.Y.) and antibiotics. […]
Control and experimental F/T groups were then assessed for cell viability at varying time points starting 3 hours after intervention. Cell viability was measured microscopically by a fluorescent dye assay (cell viability assay) by an apoptotic/necrotic assay.
The fluorescent dye assay was used to assess the plasma membrane integrity of cells immediately before (control) and after F/T using Hoechst 33342 and propidium iodide (PI). […] Cells were incubated with 9 μM Hoechst 33342 and 7 μM PI for 15 minutes at 37° C., placed on a microslide, cover-slipped and the percentage of dead cells/field determined at 200X using a fluorescent microscope (Olympus BX-50, Tokyo, Japan). […]

[4] = tested on: LNCaP Pro 5 prostate cancer cells; test: Enhancement of direct cellular injury by freeze/thaw after TNF-alpha exposure, LNCaP Pro 5; type: cell-based, human
[5] = tested on: normal nude mouse hypodermis (normal skin); test: Cryosurgery of TNF-alpha pre-inflamed normal skin in dorsal skin flap chamber (DSFC); type: in vivo
[6] = TNF-alpha 10 ng/ml to 1 μg/ml for 4 to 48 hours before freeze/thaw

## TNF-alpha
[1]; [6]
  cryosensitivity of cells in vitro: increase cryosensitivity
[1]; apoptosis/necrosis assay
  necrosis of inflamed cells in vitro: increased necrosis
[2]; LNCaP Pro 5 tumor tissues treated with TNF-alpha
  position of the edge of the static zone relative to the edge of the ice ball: extended beyond the edge of the ice ball
[2]; day 3 post cryosurgery, LNCaP Pro 5 tumor tissue, local 0.2 ng TNF-alpha 4 hours before cryosurgery
  radius of the edge of the static zone (zone of vascular stasis): 4.07±0.34 mm
[2]; local use of TNF-alpha, LNCaP Pro 5 tumor tissue
  increase of the threshold temperature of cryo-destruction versus tissue without TNF-alpha: more than 10 °C
[3]; [6]
  cryosensitivity of cells in vitro: increase cryosensitivity
[3]; apoptosis/necrosis assay
  necrosis of inflamed cells in vitro: increased necrosis
[4]; [6]
  cryosensitivity of cells in vitro: increase cryosensitivity
[4]; apoptosis/necrosis assay
  necrosis of inflamed cells in vitro: increased necrosis
[5]; TNF-alpha-treated normal skin
  minimum temperature required for cryo-destruction: −9.8±5.8 °C
[5]; inflamed normal skin tissues treated with TNF-alpha
  position of the edge of the static zone relative to the edge of the ice ball: stayed within the edge of the ice ball; also recorded: moved the edge of the static zone closer to the edge of the cryosurgical ice ball
[5]; normal nude mouse hypodermis treated with TNF-alpha, day 3 post cryosurgery
  radius of the edge of the static zone (zone of vascular stasis): 3.99±0.13 mm
